Patent US20230181482A1, “LIPIDS FOR DELIVERY OF NUCLEIC ACID SEGMENTS” (AstraZeneca AB, priority 2021, published 2023)

Legend:
[1] = LNP particle size by dynamic light scattering (Zetasizer Nano ZS); type: physicochemical; conditions: N/P ratio 3:1, DMPE-PEG2000
Method: (§1) A solution of eGFP mRNA (purchased from TriLink Biotechnologies) in citrate buffer was prepared by mixing mRNA dissolved in MilliQ-water, 100 mM citrate buffer (pH 3) and MilliQ-water to give a solution of 50 mM citrate. Lipid solution in ethanol (99.5%) was prepared with four different lipid components: ionizable lipid (see Table 1); cholesterol (Sigma-Aldrich); DSPC (distearoyl phosphatidyl choline, Avanti Polar Lipids Inc); and a polymer-conjugated lipid (see Table 1). The ratio of lipids in all experiments was ionizable lipid/cholesterol/DSPC/polymer-conjugated lipid (50/38.5/10/1.5 mol %). The total concentration of lipids in all experiments was 12.5 mM.
(§2) The mRNA and lipid solutions were mixed in a NanoAssemblr (Precision Nanosystems, Vancouver, BC, Canada) microfluidic mixing system at a mixing ratio of Aq:EtOH=3:1 and a constant flow rate of 12 mL/min. The mRNA in citrate buffer solution was prepared such that, at the time of mixing the ratio between the nitrogen atoms on the ionizable lipid and phosphorus atoms (N/P ratio) on the mRNA chain was either 3:1 or 6:1 (see Table 1).
The first 0.2-0.35 mL and the last 0.05-0.1 mL of the LNP suspension prepared were discarded while the rest of the volume was collected as the sample fraction. The size of the mRNA lipid nanoparticles was determined by dynamic light scattering measurements using a Zetasizer Nano ZS from Malvern Instruments Ltd, giving directly the z-average particle diameter. The number-weighted particle size distributions and averages were calculated using a particle refractive index of 1.45.

[2] = mRNA encapsulation efficiency of LNP formulations (Quant-it Ribogreen assay with Triton-X100); type: physicochemical; conditions: N/P ratio 3:1, DMPE-PEG2000
Method: as §1, §2
The final mRNA concentration and encapsulation efficiency percentage (% EE) was measured by Quant-it Ribogreen Assay Kit (ThermoFischer Scientific Inc.) using Triton-X100 to disrupt the LNPs. The mRNA encapsulation efficiency was determined according to the following equation: […]

Female BALB/c mice = experiment: eGFP expression in the liver at 24 hours after intravenous administration of LNP formulations to mouse (ELISA); type: in vivo; conditions: LNP N/P 3:1, DMPE-PEG2000
Excerpt: Female BALB/c mice were purchased (SPF (Beijing) Laboratory Animal Technology Co. Ltd.) and on arrival were caged in groups of 4 on corncob bedding, with normal diet and were provided tap drinking water ad libitum that was purified and autoclaved before being offered to the animal. The environment was maintained at a target temperature of […] and relative humidity of 40-80%, with a 12-hour light/dark cycle. Animals were acclimatised to the housing conditions for at least 7 days prior to any experimental procedures and were approximately 6-8 weeks of age at the start of dosing
Animals were assigned to respective groups such that the mean body weights for each treatment groups will be equal. N=4 for each treatment group.
Formulations 1, 3, 4, 5, and 6 from Example 58 were each dosed intravenously: Each mouse was removed from its cage and restrained, and then dosed with a slow IV bolus of a formulation in the lateral tail vein at a dose […] of 0.3 mg/kg.
All animals were sacrificed 24 hours after dosing and flowing blood sampling the liver for the animals dosed by the IV route and the liver and muscle at the dose site for the IM dosed animals were harvested for eGFP analysis by ELISA.
Additional LNP formulations were prepared according to the procedures described in Example 46. These formulations were tested using the same protocol as described herein. The results of eGFP expression in the liver at 24 hours after intravenous administration of the formulations were summarized in Tables 3, 4, 5 and 6 below.

Row | SMILES | <d>N (nm) ([1]; Table 6) | <d>Z (nm) ([1]; Table 6) | % EE ([2]; Table 6) [%] | Liver eGFP protein (ng/g tissue) (Female BALB/c mice; Table 6, 0.3 mg/kg) | also measured
1 | CCCCCCCCC(CCCCCCCC)OC(=O)CCCCCCCC(CCCCCCCC(=O)OCCC(C)CCCCCC)NCC1CCOCC1 (centres unmarked) [Compound 43, 1-(heptadecan-9-yl) 17-(3-methylnonyl) 9-(((tetrahydro-2H-pyran-4-yl)methyl)amino)heptadecanedioate] | – | – | – | – | <d>N (nm) ([1]; Table 5): 62 nm; <d>Z (nm) ([1]; Table 5): 79 nm; % EE ([2]; Table 5): 95%; Liver eGFP protein (ng/g tissue) (Female BALB/c mice; Table 5, 0.3 mg/kg): 2590.9 ng/g tissue
2 | CCCCCCCCC(CCCCCCCC)OC(=O)CCCCCCCC(CCCCCCCC(=O)OCCC(CC)CCCCCC)NC1CC2(COC2)C1 (centres unmarked) [Compound 44, 1-(3-ethylnonyl) 17-(heptadecan-9-yl) 9-((2-oxaspiro[3.3]heptan-6-yl)amino)heptadecanedioate] | – | – | – | – | <d>N (nm) ([1]; Table 5): 65 nm; <d>Z (nm) ([1]; Table 5): 80 nm; % EE ([2]; Table 5): 97%; Liver eGFP protein (ng/g tissue) (Female BALB/c mice; Table 5, 0.3 mg/kg): 6582.0 ng/g tissue
3 | CCCCCC(CCCCC)CCOC(=O)CCCCCC(CCCCCC(=O)OCCC(CCCCC)CCCCC)NC1CCOCC1 [Compound 45, bis(3-pentyloctyl) 7-((tetrahydro-2H-pyran-4-yl)amino)tridecanedioate] | – | – | – | – | <d>N (nm) ([1]; Table 4): 60 nm; <d>Z (nm) ([1]; Table 4): 75 nm; % EE ([2]; Table 4): 88%; Liver eGFP protein (ng/g tissue) (Female BALB/c mice; Table 4, 0.3 mg/kg): 9082.2 ng/g tissue
4 | CCCCCCCCC(CCCCCCCC)OC(=O)CCCCCCCC(CCCCCCCC(=O)OC(CC)CCCCC)NC1CC2(COC2)C1 (centres unmarked) [Compound 46, 1-(heptadecan-9-yl) 17-(octan-3-yl) 9-((2-oxaspiro[3.3]heptan-6-yl)amino)heptadecanedioate] | 54 | 73 | 93 | 15932.1 | –
5 | CCCCCCCCC(CCCCCCCC)OC(=O)CCCCCCCC(CCCCCCCC(=O)OC(CC)CCCC)NCC1CCOC1 (centres unmarked) [Compound 47, 1-(heptadecan-9-yl) 17-(heptan-3-yl) 9-(((tetrahydrofuran-3-yl)methyl)amino)heptadecanedioate] | 62 | 82 | 89 | 13883.6 | –
6 | CCCCCCCCC(CCCCCCCC)OC(=O)CCCCCCCC(CCCCCCCC(=O)OC(C)CCCCC)NCC1CCOC1 (centres unmarked) [Compound 48, 1-(heptadecan-9-yl) 17-(heptan-2-yl) 9-(((tetrahydrofuran-3-yl)methyl)amino)heptadecanedioate] | 60 | 80 | 90 | 14749.9 | –
7 | CCCCCC(CCCCC)CCOC(=O)CCCCCCCCCC(CCCCC(=O)OCCC(CCCCC)CCCCC)NC1CC2(COC2)C1 (centres unmarked) [Compound 49, bis(3-pentyloctyl) 6-((2-oxaspiro[3.3]heptan-6-yl)amino)hexadecanedioate] | 55 | 72 | 94 | 3934.6 | –
8 | CCCCCCCCC(CCC)OC(=O)CCCCCCCC(CCCCCCCC(=O)OC(CCCCCCCC)CCCCCCCC)NC1CC2(COC2)C1 (centres unmarked) [Compound 50, 1-(dodecan-4-yl) 17-(heptadecan-9-yl) 9-((2-oxaspiro[3.3]heptan-6-yl)amino)heptadecanedioate] | 51 | 65 | 97 | 7410.4 | –

Second part, led by results:

Row | <d>N (nm) ([1]; Table 6) | <d>Z (nm) ([1]; Table 6) | % EE ([2]; Table 6) [%] | SMILES | Liver eGFP protein (ng/g tissue) (Female BALB/c mice; Table 6, 0.3 mg/kg) | also measured
9 | 53 | 67 | 95 | CCCCCCCCC(CCCCCCCC)OC(=O)CCCCCCCC(CCCCCCCC(=O)OCC1CC1CCCCCC)NCC1COC1 (centres unmarked) [Compound 51, 1-(heptadecan-9-yl) 17-((2-hexylcyclopropyl)methyl) 9-((oxetan-3-ylmethyl)amino)heptadecanedioate] | 3473.8 | –
10 | 55 | 71 | 95 | CCCCCCCCC(CCCCCCCC)OC(=O)CCCCCCCC(CCCCCCCC(=O)OCC1CC1CCCCCC)NCC1CCOC1 (centres unmarked) [Compound 52, 1-(heptadecan-9-yl) 17-((2-hexylcyclopropyl)methyl) 9-(((tetrahydrofuran-3-yl)methyl)amino)heptadecanedioate] | 4701.7 | –
11 | 50 | 65 | 96 | CCCCCCCCC(CCCCCCCC)OC(=O)CCCCCCCC(CCCCCCCC(=O)OC(C)(C)CCCCCCCC)NC1CC2(COC2)C1 (centres unmarked) [Compound 53, 1-(heptadecan-9-yl) 17-(2-methyldecan-2-yl) 9-((2-oxaspiro[3.3]heptan-6-yl)amino)heptadecanedioate] | 6947.2 | –
12 | 62 | 81 | 95 | CCCCCCCCCC(=O)OCCCCCCCC(CCCCCCCC(=O)OC(CCCCCCCC)CCCCCCCC)NC1CC2(COC2)C1 (centres unmarked) [Compound 54, Heptadecan-9-yl 9-((2-oxaspiro[3.3]heptan-6-yl)amino)-16-(decanoyloxy)hexadecanoate] | 10704.5 | –
13 | 62 | 77 | 93 | CCCCCCCCC(CCCCCCCC)OC(=O)CCCCCCCC(CCCCCCCCCC(=O)OC(C)CCCCCC)NC1CC2(COC2)C1 (centres unmarked) [Compound 55, 1-(heptadecan-9-yl) 19-(octan-2-yl) 9-((2-oxaspiro[3.3]heptan-6-yl)amino)nonadecanedioate] | 18695.5 | –
14 | 58 | 73 | 96 | CCCCCCCCCCC(C)OC(=O)CCCCCC(CCCCCCCC(=O)OC(CCCCCCCC)CCCCCCCC)NC1CC2(COC2)C1 (centres unmarked) [Compound 56, 1-(dodecan-2-yl) 15-(heptadecan-9-yl) 7-((2-oxaspiro[3.3]heptan-6-yl)amino)pentadecanedioate] | 10270.4 | –
